Experimental data reported in patent US8883745B2, “C—glycolipids with enhanced Th-1 profile” (New York University, priority 2006, dated 2014).

How the values were obtained:
[1] = tested on: IL-4; experiment: In vitro IL-4 ELISPOT assay using PBMCs and immature DCs; format: cell-based, human; settings: 100 ng/ml glycolipid, 22-26 hours co-culture with immature DCs
[2] = tested on: IFN-γ; experiment: In vitro IFN-γ ELISPOT assay using PBMCs and immature DCs; format: cell-based, human; settings: 100 ng/ml glycolipid, 22-26 hours co-culture with immature DCs
Method: CD14+ cells were isolated from leukopaks, using magnetic beads (Miltenyi biotec, Auburn, Calif.) coupled to an anti-CD14 monoclonal antibody. Immature dendritic cells (DCs) were then generated from the CD14+ cells after a three-day incubation in the presence of 300 U/ml GM-CSF (R&D systems, Minneapolis, Minn.) and 100 U/ml IL-4 (R&D systems, Minneapolis, Minn.). CD14-cells were used as Peripheral Blood Mononuclear Cells (PBMCs) for the following experiments.
96 well nitrocellulose plates (Milititer HA, Millipore) were coated with 10 μg/ml of anti-human interferon γ mAb (Mabtech, Ohio), contained in 75 μl of PBS. After overnight incubation at room temperature, the wells were washed repeatedly and blocked with culture medium for 1 hour at 37° C. Following irradiation with 3000 rads, 5×10^4 immature dendritic cells were co-cultured with 5×10^5 of syngeneic CD14− PBMCs in the presence of 100 ng/ml of various glycolipids (i.e., GCK109 [A-1 trans-conformer], GCK151 [A-1 cis-conformer], GCK127 [A-2], GCK152 [A-7], and control compounds CRONY=α-C-GalCer and KRN=α-GalCer) in the ELISPOT plate for 22-26 hours at 37° C. and 5% CO2. […] After 10 to 15 minutes, the number of spots corresponding to IFN-γ secreting cells was determined using a stereomicroscope. […]

| Compound | frequency of PBMCs secreting IL-4 (ELISPOT), compared with KRN [1] | frequency of PBMCs secreting IFN-γ (ELISPOT), compared with KRN [2] |
| --- | --- | --- |
| CCCCCCCCCCCCCC[C@@H](O)[C@@H](O)[C@H](/C=C/[C@H]1OC(CO)[C@H](O)[C@H](O)C1O)NC(=O)CCCCCCCc1ccccc1 (stereo partly shown) [A-7] | high frequency | high frequency |
| CCCCCCCCCCCCCCCCCC/C=C\CCCCCCCCC(=O)N[C@@H](/C=C/[C@H]1OC(CO)[C@H](O)[C@H](O)C1O)[C@H](O)[C@H](O)CCCCCCCCCCCCCC (stereo partly shown) [GCK151] | high frequency | high frequency |
